Patent publication US20230044649A1, “METHODS TO ENHANCE BIOAVAVAILABILITY OF ORGANIC SMALL MOLECULES AND DEPOSITED FILMS MADE THEREFROM” (THE REGENTS OF THE UNIVERSITY OF MICHIGAN, priority 2015, published 2023)
Converted amounts (≈) assume the structure as drawn. Blank lines part the entries; values can stand above or below the compound they belong to.

Experiments:
[1] = Solubility at pH 7.4; assay type: physicochemical
[2] = tested on: ovarian carcinoma cell line, OVCAR3; assay: Cancer cell growth inhibition by drug film, powder or DMSO solution; assay type: cell-based; settings: for OVCAR3 cancer cells viability: after 48 hours, nominal 5 μM
Procedure: The printed films of BAY 11-7082 are tested by applying OVCAR3 cells solution directly onto the film, as compared to the BAY 11-7082 drug in powder form dissolved in DMSO.
See FIG. 11 showing drug application in a film form.

[3] = physchem; settings: 20 °C
Procedure: First, solubilities of the different compounds in corresponding solvents are measured at temperature 20±1° C.

[4] = Initial dissolution rate of printed film versus loose powder (USP 2 stirring apparatus, UV-VIS); assay type: physicochemical
Description: When comparing dissolution from powder form and film form for the same material and same crystal structure, D, V, Cs are constant and initial dissolution rate will be proportional to A/δ. δ and A are constant for dissolution from film since area of the film is not changing during dissolution. In a powder, δ and A are changing since particles size and shape is changing. […] Therefore only the initial rate can be compared between powder and a film.
In order to compare film form versus original powder dissolution behavior, loose powders with same weight as films are introduced into 10 ml solution without any prior treatment and stirred using stirring rod with same shape and diameter as one that is used for films. All experiments are performed at temperature […].
(§1) For dissolution rate experiments a USP 2 stirring apparatus with stirring speed of 100 rpm is used. Concentration is monitored using UV-VIS spectrometer equipped with dipping probe. As an example glass slides substrates with deposited 9 mm diameter drug films are used. Films weights are in the range of 5-80 μg. First, intrinsic dissolution rate (IDR) of films is studied and compared it to dissolution of compressed powder in form of 1.57 mm diameter pellets. IDR is defined as Equation (4): […]

[5] = Intrinsic dissolution rate (IDR) of films compared with compressed powder pellets; assay type: physicochemical; settings: comparable to compressed pellets, about 10 ml, 20±1° C., solvent per compound as
Procedure: as §1
In this case (dm/dt)max is maximum slope in a dissolution curve evaluated at the start of dissolution process (m—dissolved solute mass). Glass substrates with deposited films are attached to a stirring rod having same diameter as compressed pellets rod (20 mm), assuring that hydrodynamic boundary layer thickness is same for compressed powder and deposited film. Solution volume remains constant in all experiments, about 10 ml, and temperature is 20±1° C.

[6] = Surface area of printed film and of powder; assay type: physicochemical
[7] = tested on: breast carcinoma cell line, MCF7; assay: Cancer cell growth inhibition by drug film, powder or DMSO solution; assay type: cell-based; settings: after 48 hours, nominal 5 μM
[8] = powder form dissolved in growth medium

- solubility [1]: 29.25 ± 0.05 µg/mL (≈ 141 µM)
SMILES: Cc1ccc(S(=O)(=O)/C=C/C#N)cc1 [BAY 11-7082, (E)-3-(4-Methylphenylsulfonyl)-2-propenenitrile]
- efficacy / viability with film form drug compared with drug dissolved in DMSO ([2]; OVCAR3 cells applied directly onto the film): No significant difference in efficacy

- solubility ([3]; water): 10 ± 0.5 µg/mL (≈ 30.1 µM)
SMILES: O=C1OC2(c3ccc(O)cc3Oc3cc(O)ccc32)c2ccccc21 [fluorescein]

- enhancement of initial dissolution rate in film versus loose powder ([4]; aqueous HCl buffer pH 1.2, FIG. 10(b), 19±1° C.): about 30 times
- initial dissolution rate, printed film relative to powder ([4]; ibuprofen in buffer HCl 1.3): about 10 times higher
- initial dissolution rate ([4]; ibuprofen in buffer HCl 1.3, 30 μg of powder): 0.0004 µg/mL/s
- initial dissolution rate ([4]; ibuprofen in buffer HCl 1.3, printed film): 0.04 µg/mL/s
- solubility ([3]; pH 1.2, simulated gastric fluid): 22.5 ± 0.5 µg/mL (≈ 109 µM)
- intrinsic dissolution rate (IDR) [5]: 1×10^−3±3×10^−4 μg sec^−1 mm^−2
- film surface area relative to powder surface area [6]: about 5 times higher
SMILES: CC(C)Cc1ccc(C(C)C(=O)O)cc1 (stereo not drawn) [ibuprofen]

- intrinsic dissolution rate (IDR) [5]: 6×10^−4±1×10^−4 μg sec^−1 mm^−2
SMILES: CC/C(=C(\c1ccccc1)c1ccc(OCCN(C)C)cc1)c1ccccc1 [tamoxifen]
- MCF7 cancer cells viability ([7]; film form): 58%
- MCF7 cancer cells viability [7, 8]: 79%
- OVCAR3 cancer cells viability ([2]; film form): 44%
- OVCAR3 cancer cells viability [2, 8]: 68%
